Laboratory results as given in ChEMBL document CHEMBL1201862, “PubChem BioAssay data set” (2004).
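Step 1: Grow cells in 96-well plates. Step 2: Expose to compound for 48 hours at 5 concentrations. Step 3: Interpolate endpoints linearly; if unreached, use highest concentration. GI50 is the concentration that inhibits growth by half.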 Calls of active or inactive are those of the source. Rule as the data show it: active = GI50 up to about 1.1 µM and inactive = higher.

Columns and labels:
Experiment in all cases: NCI anticancer screen, dose series, 48 h
786-0 = test system: 786-0
A498 = test system: A498
A549 = test system: A549
ACHN = test system: ACHN
CAKI-1 = test system: CAKI-1
CCRF-CEM = test system: CCRF-CEM
COLO 205 = test system: COLO 205
DLD-1 = test system: DLD-1
DMS-114 = test system: DMS-114
EKVX = test system: EKVX
HCC 2998 = test system: HCC 2998
HCT-116 = test system: HCT-116
HL-60 = test system: HL-60
HOP-62 = test system: HOP-62
HOP-92 = test system: HOP-92
HT-29 = test system: HT-29
IGROV-1 = test system: IGROV-1
K562 = test system: K562
KM-20L2 = test system: KM-20L2
KM12 = test system: KM12
LOX IMVI = test system: LOX IMVI
LXFL 529 = test system: LXFL 529
M14 = test system: M14
M19-MEL = test system: M19-MEL
MOLT-4 = test system: MOLT-4
Malme-3M = test system: Malme-3M
NCI-H226 = test system: NCI-H226
NCI-H23 = test system: NCI-H23
NCI-H460 = test system: NCI-H460
NCI-H522 = test system: NCI-H522
OVCAR-3 = test system: OVCAR-3
OVCAR-4 = test system: OVCAR-4
OVCAR-5 = test system: OVCAR-5
OVCAR-8 = test system: OVCAR-8
RPMI-8226 = test system: RPMI-8226
RXF 393 = test system: RXF 393
SF-268 = test system: SF-268
SF-295 = test system: SF-295
SF-539 = test system: SF-539
SK-MEL-28 = test system: SK-MEL-28
SK-MEL-2 = test system: SK-MEL-2
SK-MEL-5 = test system: SK-MEL-5
SK-OV-3 = test system: SK-OV-3
SN12C = test system: SN12C
SNB-19 = test system: SNB-19
SNB-75 = test system: SNB-75
SW-620 = test system: SW-620
TK-10 = test system: TK-10
U-251 = test system: U-251
UACC-257 = test system: UACC-257
UO-31 = test system: UO-31
XF498 = test system: XF498

Measured: GI50

CCc1cccc(CC)c1NC(=O)C1=C(C)NC(C)=C(C(=O)Nc2c(CC)cccc2CC)C1c1ccc([N+](=O)[O-])cc1
inactive: 786-0 13.9 µM | A498 19 µM | A549 23 µM | ACHN 27.4 µM | CAKI-1 15.8 µM | CCRF-CEM 15.5 µM | COLO 205 18 µM | DLD-1 21.4 µM | DMS-114 15.4 µM | EKVX 23.5 µM | HCC 2998 36.2 µM | HCT-116 15.1 µM | HL-60 16.4 µM | HOP-62 57.5 µM | HOP-92 10.3 µM | HT-29 17.1 µM | IGROV-1 14.4 µM | K562 19.1 µM | KM-20L2 26.7 µM | KM12 18 µM | LOX IMVI 30.9 µM | LXFL 529 16.8 µM | M14 17.5 µM | M19-MEL 21.3 µM | MOLT-4 14.7 µM | Malme-3M 17.3 µM | NCI-H226 26.1 µM | NCI-H23 22.8 µM | NCI-H460 17.5 µM | NCI-H522 13.3 µM | OVCAR-3 32.1 µM | OVCAR-4 12.3 µM | OVCAR-5 44.7 µM | OVCAR-8 20.4 µM | RPMI-8226 11.4 µM | RXF 393 17.1 µM | SF-268 33.7 µM | SF-295 15.5 µM | SF-539 16.2 µM | SK-MEL-28 17.4 µM | SK-MEL-2 20 µM | SK-MEL-5 15.1 µM | SK-OV-3 38.1 µM | SN12C 46.5 µM | SNB-19 54.5 µM | SNB-75 24.5 µM | SW-620 17.7 µM | TK-10 30.4 µM | U-251 40.5 µM | UACC-257 15.4 µM | UO-31 23.2 µM | XF498 18.4 µM
